Patent US9493502B2, “Ribofuranosyl purine compounds, methods for preparing the same and use thereof” (Beijing KBD Pharmaceuticals Co., Ltd., priority 2011, dated 2016)

How the values were obtained:
[1] = tested on: ADP-induced platelet aggregation; experiment: in vitro anti-platelet aggregation induced by ADP (platelet-rich plasma, aggregometer); type: cell-based; conditions: Homo sapiens; platelet-rich plasma of healthy volunteers, inductive agent ADP (10 uM), 37° C.
From the text: (§1) The inventor conducted the anti-platelet aggregation activity screening for the compounds of the present invention, carried out the anti-platelet aggregation test by using the blood platelet which was closed to human physiological state and was not washed with water, and conducted the activity test of the in vitro anti-platelet aggregation induced by ADP, and also the activity test of the in vitro anti-platelet aggregation induced by AA (arachidonic acid) for some compounds. The present invention firstly discloses the activity test of the in vitro anti-platelet aggregation induced by AA conducted with said type of compounds.
(§2) The anti-platelet aggregation test of the compounds was conducted by the aggregometer (Model 400VS, Chrono-Log, Haverston, Pa.) from Chrono-Log Corp. ADP, AA (arachidonic acid), DMSO and trisodium citrate were purchased from Sigama.
(§3) The fasting venous blood of the subjects was collected, and placed into a 50 mL sampling tube containing 3.8% sodium citrate, and mixed homogeneously in a ratio of 1:9 (v/v) for anticoagulation, and centrifugalized at 300 rpm/min for 20 min.
(§4) The supernatant was taken to obtain platelet-rich blood plasma (PRP). The residual blood was then centrifugalized at 900 rpm/min for 10 min, and the supernatant fluid was taken to obtain platelet-poverty blood plasma (PPP). The analysis of platelet aggregation was conducted by using the aggregometer (Chrono-Log Corp.), wherein PRP and PPP were respectively added to two turbidimetric tubes. In the aggregometer, platelet-poverty blood plasma (PPP) was used as the control group. DMSO was used as the negative control. The turbidimetric tubes were incubated at 37° C. for 3 min. The PRP was stirred with a stirring rod at 900 rpm/min for 10-20 s, and the inductive agent ADP (10 uM) or AA (0.5 mM) was added to PRP, and start to record the aggregated wave patterns. The chart speed of the recorder (Model 707, Chrono-Log, Haverston, Pa., USA) was set up to be 1 cm min^−1, and the aggregation reaction was recorded for not less than 3 min. Finally, the apparatus automatically delineated the aggregation curve and calculated the results, i.e. maximum platelet aggregation rate. When the platelet aggregation was lower than 50% of the control group, the IC50 of the compound was calculated.

[2] = tested on: AA (arachidonic acid)-induced platelet aggregation; experiment: in vitro anti-platelet aggregation induced by AA (arachidonic acid) (platelet-rich plasma, aggregometer); type: cell-based; conditions: Homo sapiens; platelet-rich plasma of healthy volunteers, inductive agent AA (0.5 mM), 37° C.
From the text: as §1, §2, §3, §4

Structure (SMILES)	IC50 [1] [µM]	IC50 [2] [µM]
CCCCCCNc1nc(SCCC)nc2c1ncn2[C@@H]1O[C@H](CO)[C@@H](O)[C@H]1O [Example 8, 2-propylthio-6-n-hexylamino-9-β-D-ribofuranosyl purine]	102	–
CCSc1nc(NC2CCCCC2)c2ncn([C@@H]3O[C@H](CO)[C@@H](O)[C@H]3O)c2n1 [Example 9, 2-ethylthio-6-cyclohexylamino-9-β-D-ribofuranosyl purine]	104	–
CCCSc1nc(NC2CCCCC2)c2ncn([C@@H]3O[C@H](CO)[C@@H](O)[C@H]3O)c2n1 [Example 10, 2-propylthio-6-cyclohexylamino-9-β-D-ribofuranosyl purine]	151	–
CC(C)Sc1nc(NC2CCCCC2)c2ncn([C@@H]3O[C@H](CO)[C@@H](O)[C@H]3O)c2n1 [Example 11, 2-isopropylthio-6-cyclohexylamino-9-β-D-ribofuranosyl purine]	187	–
CCCCSc1nc(NC2CCCCC2)c2ncn([C@@H]3O[C@H](CO)[C@@H](O)[C@H]3O)c2n1 [Example 12, 2-butylthio-6-cyclohexylamino-9-β-D-ribofuranosyl purine]	83	–
CCSc1nc(NCc2ccccc2)c2ncn([C@@H]3O[C@H](CO)[C@@H](O)[C@H]3O)c2n1 [Example 13, 2-ethylthio-6-benzylamino-9-β-D-ribofuranosyl purine]	176	–
CCCSc1nc(NCc2ccccc2)c2ncn([C@@H]3O[C@H](CO)[C@@H](O)[C@H]3O)c2n1 [Example 14, 2-propylthio-6-benzylamino-9-β-D-ribofuranosyl purine]	216	–
CCCCSc1nc(NCc2ccccc2)c2ncn([C@@H]3O[C@H](CO)[C@@H](O)[C@H]3O)c2n1 [Example 15, 2-butylthio-6-benzylamino-9-β-D-ribofuranosyl purine]	202	–
CCSc1nc(NC(C)c2ccccc2)c2ncn([C@@H]3O[C@H](CO)[C@@H](O)[C@H]3O)c2n1 (stereo partly drawn) [Example 16, 2-ethylthio-6-(1-phenylethyl)amino-9-β-D-ribofuranosyl purine]	197	–
CCCSc1nc(NCc2ccc(OC)cc2)c2ncn([C@@H]3O[C@H](CO)[C@@H](O)[C@H]3O)c2n1 [Example 17, 2-propylthio-6-([4-methoxylbenzyl]amino)-9-β-D-ribofuranosyl purine]	181	–
CSc1nc(NCCc2ccccc2)c2ncn([C@@H]3O[C@H](CO)[C@@H](O)[C@H]3O)c2n1 [Example 18, 2-methylthio-6-phenylethylamino-9-β-D-ribofuranosyl purine]	36	3
CCSc1nc(NCCc2ccccc2)c2ncn([C@@H]3O[C@H](CO)[C@@H](O)[C@H]3O)c2n1 [Example 19, 2-ethylthio-6-phenylethylamino-9-β-D-ribofuranosyl purine]	29	30
CCCSc1nc(NCCc2ccccc2)c2ncn([C@@H]3O[C@H](CO)[C@@H](O)[C@H]3O)c2n1 [Example 20, 2-propylthio-6-phenylethylamino-9-β-D-ribofuranosyl purine]	52	44
CCCCSc1nc(NCCc2ccccc2)c2ncn([C@@H]3O[C@H](CO)[C@@H](O)[C@H]3O)c2n1 [Example 21, 2-butylthio-6-phenylethylamino-9-β-D-ribofuranosyl purine]	59	> 300
COc1ccc(CCNc2nc(SC)nc3c2ncn3[C@@H]2O[C@H](CO)[C@@H](O)[C@H]2O)cc1 [Example 22, 2-methylthio-6-([4-methoxylphenylethyl]-amino)-9-β-D-ribofuranosyl purine]	153	–
CCSc1nc(NCCc2ccc(OC)cc2)c2ncn([C@@H]3O[C@H](CO)[C@@H](O)[C@H]3O)c2n1 [Example 23, 2-ethylthio-6-([4-methoxylphenylethyl]amino)-9-β-D-ribofuranosyl purine]	89	–
CCCSc1nc(NCCc2ccc(OC)cc2)c2ncn([C@@H]3O[C@H](CO)[C@@H](O)[C@H]3O)c2n1 [Example 24, 2-propylthio-6-([4-methoxylphenylethyl]amino)-9-β-D-ribofuranosyl purine]	267	–
CCCCSc1nc(NCCc2ccc(OC)cc2)c2ncn([C@@H]3O[C@H](CO)[C@@H](O)[C@H]3O)c2n1 [Example 25, 2-butylthio-6-([4-methoxylphenylethyl]amino)-9-β-D-ribofuranosyl purine]	93	–
CCSc1nc(NCCc2cccc(OC)c2)c2ncn([C@@H]3O[C@H](CO)[C@@H](O)[C@H]3O)c2n1 [Example 26, 2-ethylthio-6-([3-methoxylphenylethyl]amino)-9-β-D-ribofuranosyl purine]	38	> 300
CCCSc1nc(NCCc2cccc(OC)c2)c2ncn([C@@H]3O[C@H](CO)[C@@H](O)[C@H]3O)c2n1 [Example 27, 2-propylthio-6-([3-methoxylphenylethyl]amino)-9-β-D-ribofuranosyl purine]	69	–
